Results on five compounds are retold here after PubChem BioAssay (NCI).

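1) Cells in 96-well plates. 2) Compound, 48 h, 5 concentrations. 3) Linear interpolation between surrounding doses. 4) Unreached endpoint = highest concentration. GI50 marks 50% less growth. Definition used: TGI = concentration required for complete inhibition of growth.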

Among the test systems are SK-OV-3 ovarian; OVCAR-3 ovarian; SW-620 colon; OVCAR-5 ovarian; NCI-H23 lung; MOLT-4 leukemia; SK-MEL-28 melanoma; TK-10 renal; SNB-19 CNS; MALME-3M melanoma.
Holding throughout (assay): NCI anticancer screen, dose series, 48 h

For the compound `Cc1ccc(NC(=O)C(=O)C2C(=O)NC(=O)NC2=O)c(C)c1`, the TGI in the experiment with SK-OV-3 ovarian, in the experiment with OVCAR-3 ovarian, in the experiment on SW-620 colon, in the experiment on OVCAR-5 ovarian, with NCI-H23 lung and with MOLT-4 leukemia was more than 100 µM in each case. The TGI in the experiment with SK-MEL-28 melanoma, with TK-10 renal, in the experiment with SNB-19 CNS and in the experiment with MALME-3M melanoma was more than 100 µM throughout.
With `COc1ccc2c(c1)c1ccc3c(c1n2C)C(=O)C=CC3=O`, the TGI with SK-OV-3 ovarian is 41.3 µM; with OVCAR-3 ovarian, 20.5 µM; in the experiment with SW-620 colon, 10.7 µM; with OVCAR-5 ovarian it was 35 µM; in the experiment with NCI-H23 lung, 32.2 µM; with MOLT-4 leukemia it was 4.5 µM. In addition, the TGI was 22.5 µM with SK-MEL-28 melanoma, 17.4 µM with TK-10 renal, 53 µM in the experiment on SNB-19 CNS and 18.8 µM with MALME-3M melanoma.
As for `O=C(N/N=C/c1ccc([N+](=O)[O-])cc1)c1ccccc1Nc1ccnc(C(F)(F)F)c1`, the GI50 was 28 µM in the experiment with SK-OV-3 ovarian; 4.54 µM with OVCAR-3 ovarian; 13.3 µM in the experiment with SW-620 colon; 24.6 µM with OVCAR-5 ovarian; 9.47 µM with NCI-H23 lung; 5.33 µM in the experiment on MOLT-4 leukemia. Also, the GI50 is 14.8 µM in the experiment with SK-MEL-28 melanoma, 0.0799 µM in the experiment on TK-10 renal, 23.9 µM in the experiment with SNB-19 CNS and 10.7 µM in the experiment with MALME-3M melanoma. For the same compound, the TGI is 81.4 µM in the experiment on SK-OV-3 ovarian; more than 100 µM in the experiment with OVCAR-3 ovarian; 88.1 µM in the experiment on SW-620 colon; more than 100 µM with OVCAR-5 ovarian; more than 100 µM in the experiment on NCI-H23 lung; 40.5 µM in the experiment with MOLT-4 leukemia. Moreover, the TGI in the experiment with SK-MEL-28 melanoma is 64.2 µM; in the experiment with TK-10 renal it was 20.2 µM; in the experiment on SNB-19 CNS, more than 100 µM; in the experiment with MALME-3M melanoma, 33.6 µM.
As to `COc1cccc(C2SC(C)C(=O)N2NC(=O)C(O)c2ccccc2)c1` (stereo not given), the GI50 in the experiment on SK-OV-3 ovarian, in the experiment with OVCAR-3 ovarian, with SW-620 colon, in the experiment with OVCAR-5 ovarian, with NCI-H23 lung and in the experiment on MOLT-4 leukemia was more than 100 µM in each case. For the same compound, the GI50 in the experiment with SK-MEL-28 melanoma, with TK-10 renal, with SNB-19 CNS and in the experiment on MALME-3M melanoma was more than 100 µM in each case. Also, the TGI in the experiment on SK-OV-3 ovarian, in the experiment on OVCAR-3 ovarian, with SW-620 colon, with OVCAR-5 ovarian, in the experiment on NCI-H23 lung and with MOLT-4 leukemia was more than 100 µM throughout. The TGI in the experiment with SK-MEL-28 melanoma, with TK-10 renal, in the experiment on SNB-19 CNS and with MALME-3M melanoma was more than 100 µM in each case.
For the compound `NC1=C(O)/C(=N/NS(=O)(=O)c2ccccc2)C(c2ccc3c(c2)OCO3)O1` (stereo not given), the TGI with SK-OV-3 ovarian, with OVCAR-3 ovarian, in the experiment with SW-620 colon, in the experiment with OVCAR-5 ovarian, with NCI-H23 lung and with MOLT-4 leukemia was more than 100 µM each time. The TGI in the experiment with SK-MEL-28 melanoma, with TK-10 renal, with SNB-19 CNS and in the experiment on MALME-3M melanoma was more than 100 µM throughout.
